In ChEMBL document CHEMBL3885861, “Open TG-GATES”:

Organism: Rattus norvegicus
Assay: Open TG-GATES - Regimen: Single
Format: toxicity, organism-based, Sprague-Dawley
Design: regimen Single, gender Male, age 6 weeks
Conditions: in vivo, po, 2000 mg/kg, route gavage, dose level High; for APTT / Bas / Eos / Fbg / Hb / Ht / Lym / MCH / MCHC / MCV / Mono / Neu / PT / Plat / RBC / Ret / WBC: tissue Blood; for KIDNEY_L / KIDNEY_R / KIDNEY_TOTAL: tissue Kidney; for LIVER: tissue Liver; for A/G / ALP / ALT / AST / BUN / CRE / Ca / Cl / DBIL / GLC / IP / K / LDH / Na / PL / RALB / TBIL / TC / TG / TP / gamma-GTP: tissue Plasma

## CC(=O)[C@@]1(O)CC[C@H]2[C@@H]3C=C(Cl)C4=CC(=O)CC[C@]4(C)[C@H]3CC[C@@]21C [CHLORMADINONE]
3 h
  TERMINAL_BW: 222.1 g
  APTT: 22.6 s
  Bas: 0%
  Eos: 1%
  Fbg: 306 mg/dL
  Hb: 12.8 g/dL
  Ht: 39.5%
  Lym: 74.8%
  MCH: 20 pg
  MCHC: 32.4%
  MCV: 61.8 fL
  Mono: 2%
  Neu: 21.6%
  PT: 15.2 s
  Plat: 107.8 x10_4/uL
  RBC: 639.8 x10_4/ul
  Ret: 7.8%
  WBC: 55.6 x10_2/uL
  KIDNEY_L: 0.9 g
  KIDNEY_R: 1 g
  KIDNEY_TOTAL: 1.9 g
  LIVER: 10.1 g
  A/G: 1.2
  ALP: 1401.2 IU/L
  ALT: 45.6 IU/L
  AST: 81 IU/L
  BUN: 13.8 mg/dL
  CRE: 0.2 mg/dL
  Ca: 10.9 mg/dL
  Cl: 105.2 meq/L
  DBIL: 0.004 mg/dL
  GLC: 172.2 mg/dL
  IP: 8.9 mg/dL
  K: 4.2 meq/L
  LDH: 143.6 IU/L
  Na: 141.2 meq/L
  PL: 138 mg/dL
  RALB: 3 g/dL
  TBIL: 0.032 mg/dL
  TC: 73.6 mg/dL
  TG: 50.8 mg/dL
  TP: 5.5 g/dL
  gamma-GTP: 1.4 IU/L
6 h
  TERMINAL_BW: 216.3 g
  APTT: 23.1 s
  Bas: 0%
  Eos: 0.6%
  Fbg: 313.4 mg/dL
  Hb: 13.5 g/dL
  Ht: 41.5%
  Lym: 74%
  MCH: 20.8 pg
  MCHC: 32.6%
  MCV: 63.7 fL
  Mono: 1.6%
  Neu: 23.4%
  PT: 15.1 s
  Plat: 124.8 x10_4/uL
  RBC: 651.8 x10_4/ul
  Ret: 7.9%
  WBC: 64 x10_2/uL
  KIDNEY_L: 1 g
  KIDNEY_R: 1 g
  KIDNEY_TOTAL: 2 g
  LIVER: 10.3 g
  A/G: 1.2
  ALP: 1302 IU/L
  ALT: 40.4 IU/L
  AST: 72.8 IU/L
  BUN: 13 mg/dL
  CRE: 0.1 mg/dL
  Ca: 10.8 mg/dL
  Cl: 106.2 meq/L
  DBIL: 0.004 mg/dL
  GLC: 177.4 mg/dL
  IP: 9.6 mg/dL
  K: 4.8 meq/L
  LDH: 157 IU/L
  Na: 140 meq/L
  PL: 138 mg/dL
  RALB: 3.2 g/dL
  TBIL: 0.034 mg/dL
  TC: 77.2 mg/dL
  TG: 39.8 mg/dL
  TP: 5.7 g/dL
  gamma-GTP: 1.6 IU/L
9 h
  TERMINAL_BW: 215.8 g
  APTT: 24.7 s
  Bas: 0%
  Eos: 0%
  Fbg: 319.6 mg/dL
  Hb: 13 g/dL
  Ht: 40.7%
  Lym: 71.2%
  MCH: 20.2 pg
  MCHC: 31.9%
  MCV: 63.4 fL
  Mono: 1%
  Neu: 27.2%
  PT: 15.7 s
  Plat: 119.5 x10_4/uL
  RBC: 642 x10_4/ul
  Ret: 7.9%
  WBC: 51.3 x10_2/uL
  KIDNEY_L: 0.9 g
  KIDNEY_R: 1 g
  KIDNEY_TOTAL: 1.9 g
  LIVER: 9.8 g
  A/G: 1.3
  ALP: 1584 IU/L
  ALT: 39.4 IU/L
  AST: 78 IU/L
  BUN: 12.8 mg/dL
  CRE: 0.1 mg/dL
  Ca: 10.6 mg/dL
  Cl: 106.6 meq/L
  DBIL: 0 mg/dL
  GLC: 178 mg/dL
  IP: 9.4 mg/dL
  K: 4.5 meq/L
  LDH: 142 IU/L
  Na: 141 meq/L
  PL: 142.4 mg/dL
  RALB: 3.2 g/dL
  TBIL: 0.028 mg/dL
  TC: 73 mg/dL
  TG: 67.2 mg/dL
  TP: 5.7 g/dL
  gamma-GTP: 1.4 IU/L
24 h
  TERMINAL_BW: 229.8 g
  APTT: 25.3 s
  Bas: 0%
  Eos: 1%
  Fbg: 341.6 mg/dL
  Hb: 14 g/dL
  Ht: 42.6%
  Lym: 77.6%
  MCH: 20.4 pg
  MCHC: 32.8%
  MCV: 62 fL
  Mono: 2.6%
  Neu: 17.8%
  PT: 15.3 s
  Plat: 106.3 x10_4/uL
  RBC: 687 x10_4/ul
  Ret: 7.3%
  WBC: 130.3 x10_2/uL
  KIDNEY_L: 1 g
  KIDNEY_R: 1 g
  KIDNEY_TOTAL: 2 g
  LIVER: 11.8 g
  A/G: 1.2
  ALP: 1835.4 IU/L
  ALT: 51.2 IU/L
  AST: 75 IU/L
  BUN: 15.8 mg/dL
  CRE: 0.2 mg/dL
  Ca: 11.3 mg/dL
  Cl: 105.4 meq/L
  DBIL: 0 mg/dL
  GLC: 192.4 mg/dL
  IP: 7.8 mg/dL
  K: 4.7 meq/L
  LDH: 201 IU/L
  Na: 140.6 meq/L
  PL: 185.2 mg/dL
  RALB: 3.2 g/dL
  TBIL: 0.004 mg/dL
  TC: 82 mg/dL
  TG: 222 mg/dL
  TP: 5.8 g/dL
  gamma-GTP: 1.4 IU/L
